# Assay results taken from patent US20040034003A1, “7-Hydroxy-16alpha-fluoro-5-androsten-17-ones and 7-hydroxy-16alpha-fluoro-5-androstan-17-ones and derivatives thereof” (priority 2002, published 2004).
# Values joined by “and” are separate entries in the source; they are usually repeats but may differ in a detail not shown here. Equal values may be shown once.
# System: TPA-Induced DNA Synthesis in Mouse Epidermis
# Test: TPA-induced DNA synthesis in mouse epidermis: [3H]thymidine incorporation and epidermal DNA content of a 2x2 cm2 skin section
# Format: in vivo
# Conditions: Example 5; for cpm/μg DNA (group average ±) / corrected cpm / cpm/μg DNA / μg DNA / cpm: 20 h; for corrected cpm / cpm/μg DNA / μg DNA / cpm: individual mouse
# Protocol: Epidermal hypeplasia is determined by measuring the stimulation in [^3H] thymidine incorporation as well as epidermal DNA content of a 2×2 cm^2 section of skin twenty hours after TPA application.
# In prior experiments, 16α-fluoro-5-androsten-17-one was administered in escalating doses by the oral subcutaneous, intraperitoneal, and buccal routes of administration, and the effect on TPA-stimulated epidermal [^3H] thymidine incorporation and epidermal DNA content was determined.
# In this experiment, the effect of treating mice subcutaneously (s.c.) with suspensions of 7α-hydroxy-16α-flouro-5-androsten-17-one and suspensions of 16aflouro-5-androsten-17-one were investigated.
# Variousl6α-flouro-5-androsten-17 one suspensions (Q) were prepared. The vehicle was 95% saline (0.9% NaCl) and 5% Emulphor. For the 5 mg/kg s.c. suspension, 25.3 mg was suspended in 10 mL of Emulphor-saline. The other suspensions were made by diluting the 5 mg/kg suspension. For the 2.5 mg/kg suspension, 1 mL of 5mg/kg s.c. suspension was diluted to a final volume of 2mL, for the 1 m/kg suspension 1 mL of the 5 mg/kg suspension was made to a total of 5 mL, while for the 0.125 mg/kg suspension, 0.5 mL of the 5 mg/kg suspension was made to a final volume of 20 mL. Magnetic stir bars were added to the suspensions which were kept on a magnetic stirrer.
# 7α-hydroxy-16α-flouro-5-androsten-17-one was prepared as described hereinabove. For the 5 mg/kg s.c. suspension, 16.3 mg was suspended in 6.5 mL of Emulphor-saline. The other suspensions were made by diluting the 5 mg/kg suspension. For the 2.5 mg/kg, 1 mL of 5 mg/kg suspension was diluted to a final volume of 2 mL, for the 1 mg/kg suspension 1 mL of the 5 mg/kg suspension was made to total 5 mL, while for the 0.125 mg/kg suspension, 0.5 mL of the 5 mg/kg suspension was made up to final volume of 20 mL. Magnetic stir bars were added to the suspensions and the suspensions were kept on a magnetic stirrer.
# Female CD-1 mice were obtained from Charles River Laboratories, Wilmington, Mass. at 44-46 days of age. The mice were housed two to three per cage in plastic shoebox cages on Alphacel bedding with 12 hours of alternating light and dark in the CAF Animal Facility, 6th floor, Pharmacy Building. The mice had ad libitum access-to Purina 5015 chow and acidified tap water (pH≦2.6). The mice were allowed to acclimate to the facility for one week prior to use in an experiment. Three days after obtaining the mice, the mice were shaved and weighed. Only those mice showing no hair regrowth were used in the experiment.
# Four days after the mice were shaved, they were treated as follows:
# The mice were sacrificed 20 hours after treatment by an overdose of CO2. Twenty minutes prior to sacrifice, the mice were injected with 60 μCi of [^3H]thymidine (Amersham Batch 297). The mice were treated with a depilatory to remove any residual hair. A 2×2 cm^2 piece of skin was excised, placed in ice water for 30 seconds, then in 55° C. water for 30 seconds, then ice water again for 30 seconds. The epidermis was scrapped off using a scalpel and the scrapings were placed into ice cold 0.4N TCA (trichloroacetic acid). The scrapings were homogenized using a Tekmar Tissumizer (80% power for 30 seconds). The homogenates were centrifuged for 20 minutes at 3,000×g. The precipitates were washed 3× with 0.2N TCA, and 2× with absolute ethanol. The DNA in each sample was hydrolyzed with 0.5N TCA for 30 minuts at 90°. The tubes were centrifuged for 20 minutes at 3000×g. A 0.2 mL aliquot of each hydrolysate was counted in a LKB Rackbeta scintillation counter using Scintiverse II BD as the counting medium. DNA content was determined by the Burton diphenylamine assay.
# Various suspensions were prepared of 16α-fluoro-5-androsten-17-one as follows. The vehicle was 95% saline (0.9% NaCl) and 5% Emulphor. For the 5 mg/kg s.c. suspension, 27.8 mg was suspended in 11.4 mL of Emulphor-saline. The other suspensions were made by diluting the 5 mg/kg suspension. […]
# [1] = 1 mg/kg s.c. 1 h before topical TPA 2 μg, 1 mg/kg
# [2] = 1.75 mg/kg s.c. 1 h before topical TPA 2 μg, 1.75 mg/kg
# [3] = 2.5 mg/kg s.c. 1 h before topical TPA 2 μg, 2.5 mg/kg
# [4] = 3.75 mg/kg s.c. 1 h before topical TPA 2 μg, 3.75 mg/kg
# [5] = 5 mg/kg s.c. 1 h before topical TPA 2 μg, 5 mg/kg
smiles,measurement,setting,value
"C[C@]12CCCCC1=C[C@H](O)[C@@H]1[C@@H]2CC[C@]2(C)C(=O)[C@H](F)C[C@@H]12 [7β-hydroxy-16α-fluoro-5-androsten-17-one, 16α-fluoro-7β-hydroxy-5-androsten-17-one]",cpm/μg DNA (group average ±),1 mg/kg s.c. 1 h before topical TPA 2 μg,283.4 ± 35.3 cpm/μg DNA
same,corrected cpm,[1],"4,501.0 cpm and 3,230.0 cpm"
same,cpm/μg DNA,[1],308.3 cpm/μg DNA and 258.4 cpm/μg DNA
same,μg DNA,[1],14.6 µg and 12.5 µg
same,cpm,"1 mg/kg s.c. 1 h before topical TPA 2 μg, female CD-1 mice, 1 mg/kg","4,527.0 cpm and 3,256.0 cpm"
same,cpm/μg DNA (group average ±),1.75 mg/kg s.c. 1 h before topical TPA 2 μg,156.6 ± 17.0 cpm/μg DNA
same,corrected cpm,[2],"1,445.0 cpm and 1,534.0 cpm"
same,cpm,[2],"1,471.0 cpm and 1,560.0 cpm"
same,cpm/μg DNA,[2],144.5 cpm/μg DNA and 168.6 cpm/μg DNA
same,μg DNA,[2],10.0 µg and 9.1 µg
same,cpm/μg DNA (group average ±),2.5 mg/kg s.c. 1 h before topical TPA 2 μg,480.5 ± 117.6 cpm/μg DNA
same,corrected cpm,[3],"3,814.0 cpm and 5,861.0 cpm"
same,cpm,[3],"3,840.0 cpm and 5,887.0 cpm"
same,cpm/μg DNA,[3],397.3 cpm/μg DNA and 563.6 cpm/μg DNA
same,μg DNA,[3],9.6 µg and 10.4 µg
same,cpm/μg DNA (group average ±),3.75 mg/kg s.c. 1 h before topical TPA 2 μg,485.4 ± 115.3 cpm/μg DNA
same,corrected cpm,[4],"4,706.0 cpm and 2,585.0 cpm"
same,cpm,[4],"4,732.0 cpm and 2,611.0 cpm"
same,cpm/μg DNA,[4],567.0 cpm/μg DNA and 403.9 cpm/μg DNA
same,μg DNA,[4],8.3 µg and 6.4 µg
same,cpm/μg DNA (group average ±),5 mg/kg s.c. 1 h before topical TPA 2 μg,653.7 ± 61.0 cpm/μg DNA
same,corrected cpm,[5],"6,132.0 cpm and 3,908.0 cpm"
same,cpm,[5],"6,158.0 cpm and 3,934.0 cpm"
same,cpm/μg DNA,[5],696.8 cpm/μg DNA and 610.6 cpm/μg DNA
same,μg DNA,[5],8.8 µg and 6.4 µg
same,activity compared with 16α-fluoro-5-androsten-17-one (in words),s.c.,much more active
same,dose producing an overstimulation of [3H]thymidine incorporation,s.c.,2.5 mg/kg
